Test results reported in patent publication US20100081713A1, “COMPOSITIONS AND METHODS FOR TREATING VIRAL INFECTIONS” (priority 2008, published 2010).
Entries after “also recorded” stand apart in the source; their conditions may differ.

Tested on: influenza A/PR/8/34
Design: species or system C57/BL6 mice
Details: mouse, in vivo

Compound: CN[C@H]1CC[C@@H](c2ccc(Cl)c(Cl)c2)c2ccccc21 [Sertraline]
- survival rate, result in words: dose dependant increase in survival rate; also recorded: improves survival rate
